Measurements published in patent US20210379063A1, “ORAL AMINODIHYDROPHTHALAZINEDIONE COMPOSITIONS AND THEIR USE IN THE TREATMENT OF NON-VIRAL HEPATITIS” (Immunopharma Plus D.O.O., priority 2018, published 2021).
Like-named read-outs stand apart in the source and are kept apart here. Marks after values point to notes of the source that are not given here.

Legend:
[1] = test system: acute experimental hepatitis, tetrachloromethane (CCL4)
Procedure: Acute experimental hepatitis that develops with the introduction of tetrachloromethane (CCL4) is a classic model for studying the mechanisms of reparative regeneration of the liver after exposure to various chemical toxicants.
The experiments were carried out on male Wistar rats weighing 200-220 g, in accordance with the recommendations of the international ethics committees on the humane treatment of laboratory animals (EU Council Directive 86/609 EEC dated Nov. 24, 1986). Carbon tetrachloride (CCL4), was administered to the animals intraperitoneally once at a dose of 50 mg/kg of body weight. […] The animals were sacrificed on the 3rd, 7th day after the simulation of toxic hepatitis.

PHMG poisoning = assay: Acute hepatitis caused by alcohol substitute PHMG in rats
Procedure: The experiment was carried out on 25 male white outbred rats weighing 200-300 g, in accordance with the recommendations of the international ethics committees on the humane treatment of laboratory animals (EU Council Directive 86/609 EEC dated Nov. 24, 1986). To create an experimental model, an aqueous solution of PHMG was used, which was administered intraperitoneally at a dose of 50 mg/100 g.

[2] = test system: liver after introduction of carrageenan; conditions: for ALT, units/l / AST, units/l: carrageenan + Tamerit
Procedure: The experiments were carried out on 25 male Wistar rats weighing 200-220 g, in accordance with the recommendations of the international ethics committees on the humane treatment of laboratory animals (EU Council Directive 86/609 EEC dated Nov. 24, 1986). […] Its mechanism of action is based on the inhibition of the process of phagocytosis and the activity of lysosomal hydrolases of mononuclear phagocytes. The drug was administered intragastrically through a probe in an aqueous solution at a dose of 10 mg/kg. The choice of time frame (4, 17 hours after surgery) corresponds to the phases of liver regeneration.

[3] = test system: Toxic hepatopathy degree II
Procedure: The patient received standard hepatic therapy: Duphalac 50 ml 3 times a day, Hepasol A 1000 ml, Heptral 800 mg. Detoxification therapy was carried out. […] The patient was monitored for another 1 month in a poison center.

[4] = CCl4 3rd day + Tamerit 2 mg/kg intramuscularly
[5] = CCl4 7th day + Tamerit 2 mg/kg intramuscularly
[6] = PHMG 3 days + Tamerit intraperitoneally
[7] = PHMG 7 days + Tamerit intraperitoneally
[8] = per os, enteric coated tablets, with standard hepatic therapy

Question: For Nc1cccc2c(=O)[n-][nH]c(=O)c12.[Na+] [Tamerit, aminodihydrophthalazinedione sodium], which “ALT, U/L” value [1, 4] is on record?
Answer: The value was 9.1 ± 1.6 U/L.

Question: What about the “AST, U/L” value [1, 4] of the same molecule?
Answer: Its value is 10.0 ± 2.0 U/L.

Question: What about the “BCL, quant” value [1, 4] of the same molecule?
Answer: Its value is 186.0 ± 7.0 quant.

Question: And the “ALT, U/L” value [1, 5]?
Answer: Its value is 7.12 ± 0.20 U/L.

Question: What about the “AST, U/L” value [1, 5] of the same molecule?
Answer: Its value is 8.53 ± 0.13 U/L.

Question: And the “BCL, quant” value [1, 5]?
Answer: Its value is 171 ± 18 quant.

Question: What about the “effect on inflammatory reaction in toxic hepatitis” value ([1]; early stages of toxic hepatitis by tetrachloromethane) of the same molecule?
Answer: Its value is “reduces the severity of the inflammatory reaction”.

Question: And the “degree of hepatocyte destruction” value (PHMG poisoning; 7th day after PHMG)?
Answer: The value was “minimal”.

Question: And the “ALT, U/L” value (PHMG poisoning; PHMG 3rd day + Tamerit)?
Answer: Its value is 5.7 ± 1.9 U/L.

Question: What about the “AST, U/L” value (PHMG poisoning; PHMG 3rd day + Tamerit) of the same molecule?
Answer: The value was 11.3 ± 0.6 U/L.

Question: And the “GTP, U/L” value (PHMG poisoning; PHMG 3rd day + Tamerit)?
Answer: The value was 17.5 ± 2.0 U/L.

Question: What about the “ALT, U/L” value (PHMG poisoning; PHMG 7th day + Tamerit) of the same molecule?
Answer: The value was 8.1 ± 0.2 U/L.

Question: What about the “AST, U/L” value (PHMG poisoning; PHMG 7th day + Tamerit) of the same molecule?
Answer: Its value is 12.1 ± 0.3 U/L.

Question: And the “GTP, U/L” value (PHMG poisoning; PHMG 7th day + Tamerit)?
Answer: The value was 26.0 ± 3.4 U/L.

Question: What about the “Binuclear cells, %” value (PHMG poisoning; [6]) of the same molecule?
Answer: Its value is 65.12 ± 0.14 %.

Question: And the “Mitotic index, %” value (PHMG poisoning; [6])?
Answer: The value was 38.26 ± 0.18 %.

Question: And the “Binuclear cells, %” value (PHMG poisoning; [7])?
Answer: Its value is 61.18 ± 0.24 %.

Question: And the “Mitotic index, %” value (PHMG poisoning; [7])?
Answer: Its value is 45.6 ± 0.14* ** %.

Question: And the “Mitotic index, %” value ([2]; Carrageenan 4 hours + Tamerit)?
Answer: Its value is 0.65 ± 0.25 %.

Question: And the Nuclear cytoplasmic index ([2]; Carrageenan 4 hours + Tamerit)?
Answer: The Nuclear cytoplasmic index was 0.36 ± 0.01.

Question: What about the “Number of binuclear cells, %” value ([2]; Carrageenan 4 hours + Tamerit) of the same molecule?
Answer: The value was 25.0 ± 3.58 %.

Question: What about the “Mitotic index, %” value ([2]; Carrageenan 17 hours + Tamerit) of the same molecule?
Answer: The value was 0.48 ± 0.12 %.

Question: What about the Nuclear cytoplasmic index ([2]; Carrageenan 17 hours + Tamerit) of the same molecule?
Answer: The Nuclear cytoplasmic index was 0.35 ± 0.02.

Question: What about the “Number of binuclear cells, %” value ([2]; Carrageenan 17 hours + Tamerit) of the same molecule?
Answer: Its value is 29.2 ± 4.18 %.

Question: What about the activity of aminotransferases ([2]; after carrageenan) of the same molecule?
Answer: The activity of aminotransferases was “completely restores the activity of aminotransferases to the parameters of healthy animals”.

Question: What about the “ALT, units/l” value ([2]; 4 hours) of the same molecule?
Answer: Its value is 40.2 ± 4.0 units/l.

Question: And the “AST, units/l” value ([2]; 4 hours)?
Answer: Its value is 85.4 ± 8.0 units/l.

Question: What about the “ALT, units/l” value ([2]; 17 hours) of the same molecule?
Answer: The value was 42.2 ± 3.5 units/l.

Question: What about the “AST, units/l” value ([2]; 17 hours) of the same molecule?
Answer: Its value is 83.5 ± 4.5 units/l.

Question: And the adverse effects ([3]; during the use of Tamerit)?
Answer: Its adverse effects is “no adverse effects were noted”.

Question: And the blood biochemical parameters [3, 8]?
Answer: The blood biochemical parameters was “fully normalized”.

Question: What about the “relief of symptoms of intoxication” value [3, 8] of the same molecule?
Answer: Its value is “highly effective”.
